Data: publication PMC7414031, “Correlation between hemolytic activity, cytotoxicity and systemic in vivo toxicity of synthetic antimicrobial peptides” (Scientific Reports, 2020)
pIC50: −log10 of the molar value. ≈ marks a conversion by molar mass, not a printed value. Square brackets hold non-standard residues; d marks the D form. Peptide text beside a SMILES is read from it. N(1-naphthylmethyl)Gly = O=C(O)CNCc1cccc2ccccc12; Nphe = O=C(O)CNCc1ccccc1; NBuGly = CCCCNCC(=O)O

Columns and labels:
[1] = in vitro; type: cell-based, dog; details: dog
Method: (§1) The haemolytic activity of the 24 structurally related peptides (Table 1) was evaluated in erythrocytes from four different species (human, canine, bovine and rat) employing standard methodology. The subsequent release of haemoglobin was used to assess haemolytic activity as function of peptide and peptidomimetic concentration, with concentrations ranging from 0.15 to 150 µM (Presented in whole in Supplementary information Table S1–S4).
(§2) Human and rat (Sprague–Dawley) blood samples were purchased by Bioreclamation IVT (Westbury, NY, USA), collected in tubes containing heparin as anticoagulant and stored at 4 °C before use. Dog and bovine whole blood was collected from in-house animals at Zoetis Animal Health, Kalamazoo, Michigan and stored at 4 °C in tubes containing heparin as anticoagulant. 10 mL of each whole blood sample were centrifuged at 1,500 × g for 5 min and the resulting plasma fraction was removed from the samples. The pellets were washed with an equal volume (10 mL) of saline, mixing by inversion. The centrifuging and washing steps were repeated 5 times. After the last washing step, a volume of PBS was added, and the resulting samples were diluted 1:10 with PBS to yield an RBC concentration of ~ 5 × 10^8 RBC/mL. The assay was performed in a 384-well polypropylene microplate (Greiner 784201, Greiner Bio-One International, GMBH) through a Bravo Liquid Handling Platform 384 system (Agilent Technologies, Santa Clara, CA, USA) according to the previously published procedures. The compounds were tested in serial 1:1 dilutions in PBS, with final concentrations ranging from 150 to 1.2 µM. Melittin was used as reference lytic peptide. 1% TritonX100 and PBS were used as positive and negative (diluent) controls, respectively. The final concentrations were obtained by adding to the wells 7 µL of each solution, melittin or PBS, followed by 63 µL of RBCs to each well. The plate was sealed, shaken on a plate shaker for 20 s, incubated for one hour at 37 °C. Finally, it was centrifuged at 1,500 × g for 5 min at room temperature. 60 µL of supernatants were removed from all plate wells via a Bravo 384 robot and transferred to a flat-bottomed 384-well plate (Greiner UV-Star #7810801, Greiner Bio-One International, GMBH). The plate was centrifuged at 1,000 g for 1 min to remove air bubbles and optical density was measured at 405 nm using a plate reader. Percentage of haemolysis was calculated with the following equation: %haemolysis=(absorbance of test sample)-absorbance of diluent/absorbance of positive control-absorbance of diluent×100.

[2] = test system: canine erythrocytes; assay: in vitro; type: cell-based, dog; details: for IC10 haemolysis: canine erythrocytes; for pIC50: red cells of canine
Method: as §1, §2

[3] = test system: rat erythrocytes; assay: in vitro; type: cell-based, rat (Sprague–Dawley); details: for IC10 haemolysis: rat erythrocytes; for pIC50: red cells of rat
Method: as §1, §2

[4] = in vitro; type: cell-based, rat (Sprague–Dawley); details: Sprague-Dawley, rat
Method: as §1, §2

[5] = test system: Staphylococcus pseudintermedius; details: cited from earlier work; for S.p. MIC: Staphylococcus pseudintermedius, Table S5, in µM
[6] = test system: Staphylococcus aureus; design: method as in PMID 30842436; details: cited from earlier work
[7] = in vitro; type: cell-based, bovine; details: bovine
Method: as §1, §2

[8] = test system: human erythrocytes; assay: in vitro; type: cell-based; details: for IC10 haemolysis: human erythrocytes; for pIC50: red cells of human
Method: as §1, §2

[9] = in vitro; type: cell-based, human; details: human
Method: as §1, §2

[10] = test system: human erythrocytes; details: cited from earlier work
[11] = test system: Pseudomonas aeruginosa; design: method as in PMID 30842436; details: cited from earlier work
[12] = test system: HaCaT cells; type: cell-based, human; details: 1 h
Method: (§3) An immortalised human keratinocyte (HaCaT) cell line (Gift from David Gram Naym at Bispebjerg Hospital, Denmark), a human liver cancer cell line (HepG2; ATCC HB-8065) and a human epithelial cervical cancer cell line (HeLa; ATCC CCL-2) were cultured to ∼90% confluence after 21–25 h of growth under standard conditions (5% CO2 at 37 °C). Cells were cultured in Dulbecco’s Modified Eagle’s Medium supplemented with 10% (v/v) fetal bovine serum (FBS). All culture media were supplemented with penicillin (100 IU/mL) and streptomycin (100 μg/mL). All cell media and supplements were obtained from Sigma-Aldrich (St. Louis, MO, United States). The 96-well plates were supplied by Corning Costar (Sigma-Aldrich, Brøndby, Denmark). Cell viability assessment was performed on cell monolayers grown to ∼90% confluence in 96-well plates by using the MTS/PMS assay as previously described. Briefly, the adhered cells were washed with PBS solution (37 °C) (ThermoFisher Scientific, Roskilde) and exposed for 1 h at 37 °C to 100 μL of peptides dissolved in the medium also used for culturing of the cell line (at concentrations in the range 0–1,000 μg/mL). The cells were subsequently washed twice with 37 °C PBS and then 100 μL of an MTS/PMS solution in media, consisting of 240 μg/mL MTS (Promega, Madison, WI, United States) and 2.4 mg/mL PMS (Promega, Madison, WI, United States), was added to the cells, which then were incubated for 1 h at 37 °C protected from light. A plate reader (SpectraMax i3X; Molecular devices, San Jose, CA) was used to measure the absorbance at 492 nm. The relative viability was calculated by using 0.2% (w/v) sodium dodecyl sulfate (SDS) as the positive control, while cells exposed to medium without test compound were used as the negative control.

[13] = test system: HeLa cells; type: cell-based, human; details: 1 h
Method: as §3

[14] = test system: bovine erythrocytes; assay: in vitro; type: cell-based; details: bovine erythrocytes
Method: as §1, §2

Row | Compound | hemolysis at 1 h, 150 µM [1] | Haemolysis at 80 µM (in words) [2] | IC10 haemolysis [2] | pIC50 [2] | Haemolysis at 80 µM (in words) [3] | IC10 haemolysis [3] | pIC50 [3] | hemolysis at 1 h, 150 µM [4] | MIC against Staphylococcus pseudintermedius [5] | MIC against Staphylococcus aureus [6] | hemolysis at 1 h, 150 µM [7] | Haemolysis at 80 µM (in words) [8] | IC10 haemolysis [8] | pIC50 [8] | hemolysis at 1 h, 150 µM [9] | MIC against Pseudomonas aeruginosa [11] | S.p. MIC [5] | pIC50 [12] | pIC50 [13] | IC10 haemolysis [14] | further results
1 | CCCC[C@H](NC(=O)[C@H](CCCCN)NC(=O)[C@H](CCCCN)NC(=O)[C@@H](N)CCCCN)C(=O)N[C@@H](Cc1ccc2ccccc2c1)C(=O)N[C@@H](Cc1ccccc1)C(=O)N[C@@H](Cc1ccc2ccccc2c1)C(N)=O [Compound 18, Lys-Lys-Lys-Nle-(2-Nal)Ala-Phe-(2-Nal)Ala] (HELM PEPTIDE1{K.K.K.[Nle].[O=C([C@H](Cc1ccc2ccccc2c1)N[*:1])[*:2]].F.[O=C([C@H](Cc1ccc2ccccc2c1)N[*:1])[*:2]].[am]}$$$$V2.0) | 101% | near total haemolysis | 21.4 µM | 4.37 | near total haemolysis | 64.4 µM | 4.06 | 98.6% | 2 to 4 µg/mL | 32 to 64 µg/mL | < 8% | near total haemolysis | 18.7 µM | 4.02 | 58.8% | 8 µg/mL (≈ 7.57 µM) |  |  |  |  | Previously reported haemolytic activity against human erythrocytes (in words) [10]: high in vitro haemolytic activity
2 | CCCCN(CC(=O)N(CC(=O)N(CC(=O)N(CC(N)=O)Cc1cccc2ccccc12)Cc1ccccc1)Cc1cccc2ccccc12)C(=O)[C@H](CCCCN)NC(=O)[C@H](CCCCN)NC(=O)[C@@H](N)CCCCN [Compound 15, Lys-Lys-Lys-(N-Bu)Gly-(N1-Nal)Gly-(N-Phe)Gly-(N1-Nal)Gly] (H-KKK[NBuGly][N(1-naphthylmethyl)Gly][Nphe][N(1-naphthylmethyl)Gly]-NH2) | 87.1% | near total haemolysis | 11.6 µM | 4.18 | near total haemolysis | 35.61 µM | 4.32 | 99.5% | 4 µg/mL (≈ 3.79 µM) | 16 µg/mL (≈ 15.1 µM) | < 8% | near total haemolysis | 8.4 µM | 4.38 | 94.2% | 32 µg/mL (≈ 30.3 µM) | 3.8 µM | 3.53 | 3.40 |  | 
3 | CC(C)C[C@H](NC(=O)[C@H](CCCCN)NC(=O)[C@@H](N)CCCCN)C(=O)N[C@@H](CCCCN)C(=O)N[C@@H](Cc1ccc2ccccc2c1)C(=O)N[C@@H](Cc1ccccc1)C(=O)N[C@@H](Cc1ccc2ccccc2c1)C(N)=O [Compound 1, Lys-Lys-Leu-Lys-(2-Nal)Ala-Phe-(2-Nal-)Ala] (HELM PEPTIDE1{K.K.L.K.[O=C([C@H](Cc1ccc2ccccc2c1)N[*:1])[*:2]].F.[O=C([C@H](Cc1ccc2ccccc2c1)N[*:1])[*:2]].[am]}$$$$V2.0) | 19.7% |  | 34.2 µM | < 3.82 |  | > 150 µM | < 3.82 | < 8% | 8 µg/mL (≈ 7.57 µM) | 16 µg/mL (≈ 15.1 µM) | 32.5% |  | > 150 µM | < 3.82 | < 8% | 32 µg/mL (≈ 30.3 µM) | 7.6 µM | 3.18 | 3.34 | 45.1 µM | 
4 | CC(C)C[C@H](NC(=O)[C@H](Cc1cccc2ccccc12)NC(=O)[C@H](Cc1ccccc1)NC(=O)[C@@H](N)Cc1cccc2ccccc12)C(=O)N[C@@H](CCCCN)C(=O)N[C@@H](CCCCN)C(=O)N[C@@H](CCCCN)C(N)=O [Compound 5, (1-Nal)Ala-Phe-(1-Nal)Ala-Leu-Lys-Lys-Lys] (HELM PEPTIDE1{[N[C@@H](Cc1cccc2ccccc12)C(=O)[*:2]].F.[O=C([C@H](Cc1cccc2ccccc12)N[*:1])[*:2]].L.K.K.K.[am]}$$$$V2.0) | 22.5% |  | 29.6 µM | < 3.82 |  | 147.7 µM | < 3.82 | 10.2% | 16 µg/mL (≈ 15.1 µM) | 32 µg/mL (≈ 30.3 µM) | < 8% |  | 35.3 µM | < 3.82 | 36% | > 64 µg/mL | 15.1 µM | 3.28 | 2.99 |  | 
5 | CC(C)C[C@H](NC(=O)[C@H](CCCCN)NC(=O)[C@H](Cc1ccc2ccccc2c1)NC(=O)[C@H](Cc1ccccc1)NC(=O)[C@@H](N)Cc1ccc2ccccc2c1)C(=O)N[C@@H](CCCCN)C(=O)N[C@@H](CCCCN)C(N)=O [Compound 13, (2-Nal)Ala-Phe-(2-Nal)Ala-Lys-Leu-Lys-Lys] (HELM PEPTIDE1{[N[C@@H](Cc1ccc2ccccc2c1)C(=O)[*:2]].F.[O=C([C@H](Cc1ccc2ccccc2c1)N[*:1])[*:2]].K.L.K.K.[am]}$$$$V2.0; N-terminus assumed) | 27.4% |  | 27.1 µM | < 3.82 |  | > 150 µM | < 3.82 | < 8% | 4 to 8 µg/mL | 16 µg/mL (≈ 15.1 µM) | 17.6% |  | 44.2 µM | 3.86 | 55.3% | 64 µg/mL (≈ 60.6 µM) |  |  |  | 96.7 µM | 
